Reference: ChEMBL document CHEMBL2203083, “Facile synthesis and anticancer activity of C-10 non-acetal deoxoartemisinin dimers” (Bioorg Med Chem Lett, 2012)

Each compound was assayed on Caco-2 (assay: Cytotoxicity against human Caco2 cells assessed as cell viability after 48 hrs by MTT assay). Details: Caco-2, 48 h.
Format: functional, cell-based

Row | Compound | IC50
1 | C[C@H]1[C@@H](CC(=O)N(CCNC(=O)[C@H](CCCCNC(=O)OC(C)(C)C)NC(=O)OCC2c3ccccc3-c3ccccc32)CC(=O)NCCN(CC(=O)OC(C)(C)C)C(=O)C[C@H]2O[C@@H]3O[C@@]4(C)CC[C@H]5[C@H](C)CC[C@@H]([C@H]2C)[C@@]35OO4)O[C@@H]2O[C@@]3(C)CC[C@H]4[C@H](C)CC[C@@H]1[C@@]24OO3 | 8.03 µM
2 | C[C@H]1[C@@H](CC(=O)N(CCNC(=O)[C@H](CCCCN)NC(=O)OCC2c3ccccc3-c3ccccc32)CC(=O)OC(C)(C)C)O[C@@H]2O[C@@]3(C)CC[C@H]4[C@H](C)CC[C@@H]1[C@@]24OO3 | 4.38 µM
3 | C[C@H]1[C@@H](CC(=O)N(CCNC(=O)[C@H](CCCCNC(=O)OC(C)(C)C)NC(=O)OCC2c3ccccc3-c3ccccc32)CC(=O)OC(C)(C)C)O[C@@H]2O[C@@]3(C)CC[C@H]4[C@H](C)CC[C@@H]1[C@@]24OO3 | 12 µM
4 | C[C@H]1[C@@H](CC(=O)N(CCNC(=O)[C@H](CCCCN)NC(=O)OCC2c3ccccc3-c3ccccc32)CC(=O)NCCN(CC(=O)OC(C)(C)C)C(=O)C[C@H]2O[C@@H]3O[C@@]4(C)CC[C@H]5[C@H](C)CC[C@@H]([C@H]2C)[C@@]35OO4)O[C@@H]2O[C@@]3(C)CC[C@H]4[C@H](C)CC[C@@H]1[C@@]24OO3 | 2.04 µM
5 | C[C@H]1[C@@H](O)O[C@@H]2O[C@@]3(C)CC[C@H]4[C@H](C)CC[C@@H]1[C@@]24OO3 [ARTENIMOL] | 26.9 µM
6 | C[C@H]1[C@@H](CC(=O)N(CCNC(=O)OCC2c3ccccc3-c3ccccc32)CC(=O)NCCN(CC(=O)OC(C)(C)C)C(=O)C[C@H]2O[C@@H]3O[C@@]4(C)CC[C@H]5[C@H](C)CC[C@@H]([C@H]2C)[C@@]35OO4)O[C@@H]2O[C@@]3(C)CC[C@H]4[C@H](C)CC[C@@H]1[C@@]24OO3 | 2.87 µM
7 | C[C@H]1[C@@H](CC(=O)N(CCNC(=O)[C@@H](N)CCCCN)CC(=O)NCCN(CC(=O)OC(C)(C)C)C(=O)C[C@H]2O[C@@H]3O[C@@]4(C)CC[C@H]5[C@H](C)CC[C@@H]([C@H]2C)[C@@]35OO4)O[C@@H]2O[C@@]3(C)CC[C@H]4[C@H](C)CC[C@@H]1[C@@]24OO3 | 3.58 µM
8 | C[C@H]1[C@@H](CC(=O)N(CCNC(=O)[C@@H](N)CCCCN)CC(=O)OC(C)(C)C)O[C@@H]2O[C@@]3(C)CC[C@H]4[C@H](C)CC[C@@H]1[C@@]24OO3 | 14.7 µM
9 | C[C@H]1[C@@H](CC(=O)N(CCNC(=O)OCC2c3ccccc3-c3ccccc32)CC(=O)OC(C)(C)C)O[C@@H]2O[C@@]3(C)CC[C@H]4[C@H](C)CC[C@@H]1[C@@]24OO3 | 5.36 µM
